Earlier results in patent US11969487B2, “Non-cellular root canal filling material and non-cellular dental tissue regeneration promoting kit” (Kowa Company, Ltd., priority 2017, dated 2024).
Where two headings read alike, the source gives them in different places.

Experiments:
[1] = test system: dental pulp regeneration in dogs
[2] = test system: dental pulp stem cells on dentin surfaces; settings: dental pulp stem cells seeded on treated dentin surfaces in vitro

In the case of trypsin, the dental pulp regeneration ([1]; no transplantation of dental pulp stem cells) is listed as “hardly observed”, the dental pulp regeneration ([1]; root canals pretreated before dental pulp stem cell transplantation, middle-aged and elderly individuals) is listed as “promoted” and the “effect of pretreatment on the dental pulp regeneration” value ([1]; young dogs) is listed as “no effect”. The “adhesion of the cells” value [2] was “increased” and the differentiation into odontoblasts [2] was “promotion of differentiation into odontoblasts was observed”.
